The record followed here is patent US20160109450A1, “METHOD FOR MONITORING METASTASIS OF CANCER CELLS USING CELLS CULTURED IN THREE DIMENSIONAL COLLAGEN ENVIRONMENT” (Medicinal Bioconvergence Research Center, priority 2013, published 2016).

In series [1] the test system is MDA-MB-231 cell line. Conditions: ERK inhibitor treated cells.
Series [2] concerns MDA-MB-231 cell line. The experiment in a line: ChIP (chromatin immunoprecipitation) on snail1 and cortactin promoters. The class given is cell-based, human. The conditions noted are these: ChIP with anti-pS63 c-Jun antibody. On the procedure: The cells were then treated with 1.5 M glycine, followed by washing with cold PBS containing protease inhibitor. The fixed cells were loaded in SDS-lysis buffer supplemented with protease/kinase inhibitor, followed by sonication for lysis. The lysed sample proceeded to […] at 13000 rpm for 3 minutes, and the supernatant was transferred into a microcentrifuge tube, followed by sonication again for chromatin fragmentation. Supernatant was obtained by centrifugation, some of which was transferred into input and some of which was reacted with the antibodies of phospho-Ser^63-c-Jun, snail1, and smad 2/3/4 (cell signaling technology, USA) at 4° C. for at least 18 hours. Upon completion of the reaction, the tube was taken out from 4° C., to which sepharose beads coated with protein A and G (1:1), followed by reaction at 4° C. for 4 hours. The tube was then washed with RIPA/150 mM NaCl solution and washed again with RIPA/350 mM NaCl solution. The washed sample was washed again with LiCl washing buffer, which was washed with TE (Tris/EDTA) solution three times. TE solution was added thereto, followed by reaction at 65° C. for 15 hours. On the 3rd day of the reaction, RNase A was added to each input and sample, followed by reaction at 37° C. Proteinase K was added thereto, followed by reaction at 55° C. for 1 hour. […]

Take `N#CC(=C(/N)Sc1ccccc1N)/C(C#N)=C(/N)Sc1ccccc1N` [ERK inhibitor]: the cell growth entry with MDA-MB-231 cell line [1] is “did not grow normally but instead showed dying proneness”.
Regarding `Oc1c2ccccc2c2c3c(cccc13)N=N2` [SP600125], the “binding of c-Jun to snail1 promoter region” value with MDA-MB-231 cell line [2] is “did not bind”.
